We go through 7 cell lines from the supplement of paper PMC10307832.

Test in all cases: relative viability (nuclei count vs DMSO), 5 days (fraction); higher = more cells survive
Compound in the experiment “17-AAG + Palbociclib”: C=CCNC1=C2C[C@@H](C)C[C@H](OC)[C@H](O)[C@@H](C)/C=C(\C)[C@H](OC(N)=O)[C@@H](OC)/C=C\C=C(/C)C(=O)NC(=CC1=O)C2=O [17-AAG] + CC(=O)c1c(C)c2cnc(Nc3ccc(N4CCNCC4)cn3)nc2n(C2CCCC2)c1=O [Palbociclib] (partner 0.5 µM)
A digest of the protocol:
(§1)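 Each reported value is a median over duplicate plates. It expresses relative viability: treated-well nuclei count divided by vehicle-well nuclei count. Lung cancer cell lines in 1536-well plates were dosed by pin tool a day after seeding, alone with one drug or with a fixed anchor-drug dose plus five library-drug doses (not always all listed) in √10 steps, and nuclei were counted after 5 days.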

Compound in the experiment “17-AAG + Pictilisib”: C=CCNC1=C2C[C@@H](C)C[C@H](OC)[C@H](O)[C@@H](C)/C=C(\C)[C@H](OC(N)=O)[C@@H](OC)/C=C\C=C(/C)C(=O)NC(=CC1=O)C2=O [17-AAG] + CS(=O)(=O)N1CCN(Cc2cc3nc(-c4cccc5[nH]ncc45)nc(N4CCOCC4)c3s2)CC1 [Pictilisib] (partner 1 µM)
A digest of the protocol:
as §1

Compound in the experiment “17-AAG + Phenformin”: C=CCNC1=C2C[C@@H](C)C[C@H](OC)[C@H](O)[C@@H](C)/C=C(\C)[C@H](OC(N)=O)[C@@H](OC)/C=C\C=C(/C)C(=O)NC(=CC1=O)C2=O [17-AAG] + N=C(N)NC(=N)NCCc1ccccc1 [Phenformin] (partner 250 µM)
A digest of the protocol:
as §1

Compound in the experiment “17-AAG + Decitabine”: C=CCNC1=C2C[C@@H](C)C[C@H](OC)[C@H](O)[C@@H](C)/C=C(\C)[C@H](OC(N)=O)[C@@H](OC)/C=C\C=C(/C)C(=O)NC(=CC1=O)C2=O [17-AAG] + Nc1ncn([C@H]2C[C@H](O)[C@@H](CO)O2)c(=O)n1 [Decitabine] (partner 2 µM)
The essentials:
as §1

For the cell line NCI-H2347, the relative viability turned out to be 0.45 with 17-AAG + Palbociclib (first compound 0.00128 µM); 0.446 with 17-AAG + Palbociclib (first compound 0.004048 µM); 0.397 with 17-AAG + Palbociclib (first compound 0.0128 µM); 0.317 with 17-AAG + Palbociclib (first compound 0.04048 µM); 0.322 with 17-AAG + Palbociclib (first compound 0.128 µM); 0.671 with 17-AAG + Pictilisib (first compound 0.00128 µM). Moreover, the relative viability with 17-AAG + Pictilisib (first compound 0.004048 µM) amounted to 0.478; in the experiment with 17-AAG + Pictilisib (first compound 0.0128 µM), 0.508; with 17-AAG + Pictilisib (first compound 0.04048 µM) it was 0.717; with 17-AAG + Pictilisib (first compound 0.128 µM), 0.43; with 17-AAG + Phenformin (first compound 0.00128 µM), 0.466; in the experiment with 17-AAG + Phenformin (first compound 0.004048 µM) it was 0.38. Further, the relative viability with 17-AAG + Phenformin (first compound 0.0128 µM) worked out at 0.275; in the experiment with 17-AAG + Phenformin (first compound 0.04048 µM) it was 0.187; with 17-AAG + Phenformin (first compound 0.128 µM), 0.191; with 17-AAG + Decitabine (first compound 0.00128 µM) it was 0.659; in the experiment with 17-AAG + Decitabine (first compound 0.004048 µM), 0.631; in the experiment with 17-AAG + Decitabine (first compound 0.0128 µM), 0.558. The relative viability with 17-AAG + Decitabine (first compound 0.04048 µM) is 0.453; in the experiment with 17-AAG + Decitabine (first compound 0.128 µM), 0.386.
On to ABC-1, for which the relative viability worked out at 0.701 in the experiment with 17-AAG + Palbociclib (first compound 0.00128 µM); 0.805 in the experiment with 17-AAG + Palbociclib (first compound 0.004048 µM); 0.772 in the experiment with 17-AAG + Palbociclib (first compound 0.0128 µM); 0.79 with 17-AAG + Palbociclib (first compound 0.04048 µM); 0.602 with 17-AAG + Palbociclib (first compound 0.128 µM); 0.794 with 17-AAG + Pictilisib (first compound 0.00128 µM). The relative viability with 17-AAG + Pictilisib (first compound 0.004048 µM) is 0.777; with 17-AAG + Pictilisib (first compound 0.0128 µM), 0.829; in the experiment with 17-AAG + Pictilisib (first compound 0.04048 µM), 0.81; in the experiment with 17-AAG + Pictilisib (first compound 0.128 µM) it was 0.651; with 17-AAG + Phenformin (first compound 0.00128 µM), 0.212; with 17-AAG + Phenformin (first compound 0.004048 µM), 0.261. The relative viability in the experiment with 17-AAG + Phenformin (first compound 0.0128 µM) was 0.255; with 17-AAG + Phenformin (first compound 0.04048 µM), 0.246; in the experiment with 17-AAG + Phenformin (first compound 0.128 µM), 0.261; with 17-AAG + Decitabine (first compound 0.00128 µM), 1.08; with 17-AAG + Decitabine (first compound 0.004048 µM), 1.16; with 17-AAG + Decitabine (first compound 0.0128 µM), 1.24. Besides, the relative viability is 1.2 in the experiment with 17-AAG + Decitabine (first compound 0.04048 µM) and 0.666 with 17-AAG + Decitabine (first compound 0.128 µM).
In the case of A-427, the relative viability with 17-AAG + Palbociclib (first compound 0.00128 µM) is 0.554; with 17-AAG + Palbociclib (first compound 0.004048 µM), 0.506; in the experiment with 17-AAG + Palbociclib (first compound 0.0128 µM) it was 0.54; with 17-AAG + Palbociclib (first compound 0.04048 µM), 0.354; in the experiment with 17-AAG + Palbociclib (first compound 0.128 µM), 0.291; with 17-AAG + Pictilisib (first compound 0.00128 µM) it was 0.684. Further, the relative viability stood at 0.737 in the experiment with 17-AAG + Pictilisib (first compound 0.004048 µM); 0.765 with 17-AAG + Pictilisib (first compound 0.0128 µM); 0.748 with 17-AAG + Pictilisib (first compound 0.04048 µM); 0.286 in the experiment with 17-AAG + Pictilisib (first compound 0.128 µM); 0.353 in the experiment with 17-AAG + Phenformin (first compound 0.00128 µM); 0.347 with 17-AAG + Phenformin (first compound 0.004048 µM). For the same cell line, the relative viability in the experiment with 17-AAG + Phenformin (first compound 0.0128 µM) was 0.374; with 17-AAG + Phenformin (first compound 0.04048 µM), 0.271; with 17-AAG + Phenformin (first compound 0.128 µM), 0.167; with 17-AAG + Decitabine (first compound 0.00128 µM), 0.55; in the experiment with 17-AAG + Decitabine (first compound 0.004048 µM), 0.528; in the experiment with 17-AAG + Decitabine (first compound 0.0128 µM), 0.561. Further, the relative viability in the experiment with 17-AAG + Decitabine (first compound 0.04048 µM) was 0.395; with 17-AAG + Decitabine (first compound 0.128 µM) it was 0.306.
As for LCLC-97TM1, the relative viability was 0.264 in the experiment with 17-AAG + Palbociclib (first compound 0.00128 µM); 0.213 in the experiment with 17-AAG + Palbociclib (first compound 0.004048 µM); 0.199 with 17-AAG + Palbociclib (first compound 0.0128 µM); 0.251 with 17-AAG + Palbociclib (first compound 0.04048 µM); 0.209 in the experiment with 17-AAG + Palbociclib (first compound 0.128 µM); 0.263 with 17-AAG + Pictilisib (first compound 0.00128 µM). For the same cell line, the relative viability with 17-AAG + Pictilisib (first compound 0.004048 µM) stood at 0.228; in the experiment with 17-AAG + Pictilisib (first compound 0.0128 µM), 0.211; with 17-AAG + Pictilisib (first compound 0.04048 µM) it was 0.13; with 17-AAG + Pictilisib (first compound 0.128 µM) it was 0.104; with 17-AAG + Phenformin (first compound 0.00128 µM), 0.454; in the experiment with 17-AAG + Phenformin (first compound 0.004048 µM), 0.402. The relative viability amounted to 0.428 with 17-AAG + Phenformin (first compound 0.0128 µM); 0.247 with 17-AAG + Phenformin (first compound 0.04048 µM); 0.143 with 17-AAG + Phenformin (first compound 0.128 µM); 0.197 in the experiment with 17-AAG + Decitabine (first compound 0.00128 µM); 0.21 in the experiment with 17-AAG + Decitabine (first compound 0.004048 µM); 0.255 in the experiment with 17-AAG + Decitabine (first compound 0.0128 µM). For the same cell line, the relative viability was determined as 0.259 with 17-AAG + Decitabine (first compound 0.04048 µM) and 0.185 with 17-AAG + Decitabine (first compound 0.128 µM).
As for HCC-15, the relative viability was found to be 0.693 with 17-AAG + Palbociclib (first compound 0.00128 µM); 0.687 in the experiment with 17-AAG + Palbociclib (first compound 0.004048 µM); 0.429 with 17-AAG + Palbociclib (first compound 0.0128 µM); 0.31 in the experiment with 17-AAG + Palbociclib (first compound 0.04048 µM); 0.149 in the experiment with 17-AAG + Palbociclib (first compound 0.128 µM); 0.73 in the experiment with 17-AAG + Pictilisib (first compound 0.00128 µM). Further, the relative viability with 17-AAG + Pictilisib (first compound 0.004048 µM) is 0.774; with 17-AAG + Pictilisib (first compound 0.0128 µM) it was 0.508; with 17-AAG + Pictilisib (first compound 0.04048 µM), 0.187; in the experiment with 17-AAG + Pictilisib (first compound 0.128 µM), 0.121; with 17-AAG + Phenformin (first compound 0.00128 µM), 0.433; in the experiment with 17-AAG + Phenformin (first compound 0.004048 µM) it was 0.33. The relative viability amounted to 0.146 with 17-AAG + Phenformin (first compound 0.0128 µM); 0.124 with 17-AAG + Phenformin (first compound 0.04048 µM); 0.107 with 17-AAG + Phenformin (first compound 0.128 µM); 0.599 with 17-AAG + Decitabine (first compound 0.00128 µM); 0.557 with 17-AAG + Decitabine (first compound 0.004048 µM); 0.174 with 17-AAG + Decitabine (first compound 0.0128 µM). The relative viability with 17-AAG + Decitabine (first compound 0.04048 µM) stood at 0.136; with 17-AAG + Decitabine (first compound 0.128 µM) it was 0.137.
Turning to NCI-H650, the relative viability is 0.325 in the experiment with 17-AAG + Palbociclib (first compound 0.00128 µM); 0.356 with 17-AAG + Palbociclib (first compound 0.004048 µM); 0.371 with 17-AAG + Palbociclib (first compound 0.0128 µM); 0.339 with 17-AAG + Palbociclib (first compound 0.04048 µM); 0.161 with 17-AAG + Palbociclib (first compound 0.128 µM); 0.96 with 17-AAG + Pictilisib (first compound 0.00128 µM). The relative viability with 17-AAG + Pictilisib (first compound 0.004048 µM) worked out at 1.05; with 17-AAG + Pictilisib (first compound 0.0128 µM), 0.744; with 17-AAG + Pictilisib (first compound 0.04048 µM) it was 0.776; with 17-AAG + Pictilisib (first compound 0.128 µM), 0.329; in the experiment with 17-AAG + Phenformin (first compound 0.00128 µM), 0.445; with 17-AAG + Phenformin (first compound 0.004048 µM), 0.459. The relative viability with 17-AAG + Phenformin (first compound 0.0128 µM) was 0.421; with 17-AAG + Phenformin (first compound 0.04048 µM) it was 0.308; with 17-AAG + Phenformin (first compound 0.128 µM) it was 0.228; in the experiment with 17-AAG + Decitabine (first compound 0.00128 µM), 0.315; with 17-AAG + Decitabine (first compound 0.004048 µM), 0.339; with 17-AAG + Decitabine (first compound 0.0128 µM) it was 0.384. For the same cell line, the relative viability with 17-AAG + Decitabine (first compound 0.04048 µM) amounted to 0.302; with 17-AAG + Decitabine (first compound 0.128 µM), 0.196.
Regarding UMC-11, the relative viability came to 0.353 with 17-AAG + Palbociclib (first compound 0.00128 µM); 0.371 with 17-AAG + Palbociclib (first compound 0.004048 µM); 0.3 in the experiment with 17-AAG + Palbociclib (first compound 0.0128 µM); 0.249 with 17-AAG + Palbociclib (first compound 0.04048 µM); 0.292 with 17-AAG + Palbociclib (first compound 0.128 µM); 0.824 in the experiment with 17-AAG + Pictilisib (first compound 0.00128 µM). The relative viability with 17-AAG + Pictilisib (first compound 0.004048 µM) came to 0.809; with 17-AAG + Pictilisib (first compound 0.0128 µM), 0.662; with 17-AAG + Pictilisib (first compound 0.04048 µM), 0.219; in the experiment with 17-AAG + Pictilisib (first compound 0.128 µM), 0.143; with 17-AAG + Phenformin (first compound 0.00128 µM) it was 0.297; with 17-AAG + Phenformin (first compound 0.004048 µM), 0.292. Further, the relative viability turned out to be 0.249 with 17-AAG + Phenformin (first compound 0.0128 µM); 0.223 with 17-AAG + Phenformin (first compound 0.04048 µM); 0.19 in the experiment with 17-AAG + Phenformin (first compound 0.128 µM); 0.484 with 17-AAG + Decitabine (first compound 0.00128 µM); 0.658 with 17-AAG + Decitabine (first compound 0.004048 µM); 0.536 with 17-AAG + Decitabine (first compound 0.0128 µM). For the same cell line, the relative viability stood at 0.523 in the experiment with 17-AAG + Decitabine (first compound 0.04048 µM) and 0.255 with 17-AAG + Decitabine (first compound 0.128 µM).
